We go through 16 compounds from US8299262B2, “Pyridylmethyl-sulfonamide compounds” (BASF SE, priority 2007, dated 2012).

One assay relates to Alternaria solani. Put plainly: Synergistic mixtures, microtiter test, early blight pathogen Alternaria solani (Use Example 24). It is filed as cell-based. The conditions noted are these: single compound.
A further assay concerns Septoria tritici. The assay is described as follows: Synergistic mixtures, microtiter test, leaf blotch pathogen Septoria tritici (Use Example 26). It is filed as cell-based. The settings on record: single compound.
A further assay relates to Fusarium culmorum. The assay is described as follows: Synergistic mixtures, microtiter test, Fusarium culmorum (Use Example 27). The settings on record: single compound. The class given is cell-based.
Another assay concerns Colletotrichum truncatum. The assay is described as follows: Synergistic mixtures, microtiter test, Colletotrichum truncatum (Use Example 28). The class given is cell-based. The conditions noted are these: single compound.
The test system of a further assay is Pyrenophora teres. The assay is described as follows: Synergistic mixtures, microtiter test, net blotch pathogen Pyrenophora teres (Use Example 29). The class given is cell-based. The settings on record: single compound.
Another assay relates to Thielaviopsis basicola. Put plainly: Synergistic mixtures, microtiter test, Thielaviopsis basicola (Use Example 31). The class given is cell-based. The conditions noted are these: single compound.
A further assay relates to Puccinia recondita. The assay is described as follows: Synergistic mixtures, greenhouse, preventative control of brown rust on wheat caused by Puccinia recondita (Use Example 34). The conditions noted are these: single compound, untreated control 90% disease. The class given is in vivo. The procedure: These percentages were converted into efficacies. An efficacy of 0 means that the growth level of the pathogens corresponds to that of the untreated control; an efficacy of 100 means that the pathogens were not growing.
The expected efficacies of active compound mixtures were determined using Colby's formula [R. S. Colby, Calculating synergistic and antagonistic responses of herbicide combinations, Weeds 15, 20-22 (1967)] and compared with the observed efficacies. E=x+y−x·y/100 Colby's formula • E expected efficacy, expressed in % of the untreated control, when using the mixture of the compounds A and B at the concentration a and b • x efficacy, expressed in % of the untreated control, when using compound A at a concentration of a • y efficacy, expressed in % of the untreated control, when using compound B at a concentration of b A) Microtiter Tests
The spray solutions were prepared in several steps:
The stock solution were prepared as follows: a mixture of acetone and/or dimethylsulfoxide and the wetting agent/emulsifier Wettol, which is based on ethoxylated alkylphenoles, in a relation (volume) solvent-emulsifier of 99 to 1 was added to 25 mg of the compound to give a total of 10 ml. Water was then added to total volume of 100 ml.
This stock solution was diluted with the described solvent-emulsifier-water mixture to the given concentration. The compounds pyraclostrobin, boscalid and epoxiconazole were used as commercial finished formulations and diluted with water to the stated concentration of the active compound.
The first two developed leaves of pot-grown wheat seedling were sprayed to run-off with an aqueous suspension, containing the concentration of active ingredient or their mixture as described below. The next day the plants were inoculated with spores of Puccinia recondita. To ensure the success the artificial inoculation, the plants were transferred to a humid chamber without light and a relative humidity of 95 to 99% and at temperatures between 20 and 24° C. for 24 h. Then, the plants were cultivated for 6 days in a greenhouse chamber at 20 to 24° C. and a relative humidity between 65 and 70%. The extent of fungal attack on the leaves was visually assessed as % diseased leaf area.

In another assay the test system is Verticillium dahliae. The conditions noted are these: single compound.
The test system of assay [1] is Pyricularia oryzae. The class given is cell-based. The settings on record: control =100%, day 7.
In the next assay the test system is Phytophthora infestans. It is filed as cell-based. The conditions noted are these: single compound.
The subject of assay [2] is Pyricularia oryzae. The class given is cell-based. The conditions noted are these: single compound.
The subject of the next assay is Gaeumannomyces graminis. Put plainly: Synergistic mixtures, microtiter test, Gaeumannomyces graminis (Use Example 30). It is filed as cell-based. The settings on record: single compound.

Read-outs that look alike come from different tables or passages of the source.

As to `Cc1cc(Oc2ccc(C(F)(F)F)cn2)ccc1S(=O)(=O)NCc1ccnc(C)c1C` [Example 203], the “Observed efficacy (%)” value is listed as 0% in the assay with Alternaria solani (0.063 ppm); 45% in the assay on Septoria tritici (4 ppm); 1% in the assay on Fusarium culmorum (16 ppm); 36% with Colletotrichum truncatum (4 ppm); 34% in the assay with Pyrenophora teres (0.25 ppm); 0% in the assay on Thielaviopsis basicola (1 ppm). Moreover, the “Observed efficacy (%)” value is 13% in the assay on Thielaviopsis basicola (4 ppm); 22% in the assay on Puccinia recondita (4 ppm); 44% in the assay with Puccinia recondita (16 ppm); 52% in the assay with Verticillium dahliae (1 ppm); 56% in the assay on Verticillium dahliae (4 ppm).
In the case of `COc1cc(CNS(=O)(=O)c2ccc(Oc3ccccn3)cc2)ccn1` [Example 7], the “growth in [%] at 31 ppm” value with Pyricularia oryzae [1] is 53%. In addition, the “Observed efficacy (%)” value in the assay with Phytophthora infestans (0.016 ppm) was 11%; with Alternaria solani (0.016 ppm), 11%; in the assay with Pyricularia oryzae [2] (0.063 ppm), 1%; with Fusarium culmorum (16 ppm), 7%; in the assay with Colletotrichum truncatum (4 ppm) it was 20%; with Pyrenophora teres (0.25 ppm) it was 17%. Besides, the “Observed efficacy (%)” value in the assay with Pyrenophora teres (1 ppm) amounted to 28%; in the assay on Gaeumannomyces graminis (0.063 ppm) it was 9%; with Gaeumannomyces graminis (0.25 ppm), 51%.
For the compound `O=C(Nc1ccccc1-c1ccc(Cl)cc1)c1cccnc1Cl` [Boscalid, reference compound], the “Observed efficacy (%)” value with Phytophthora infestans (0.016 ppm) is given as 5%; in the assay with Alternaria solani (0.063 ppm), 23%; in the assay with Fusarium culmorum (16 ppm) it was 1%; in the assay on Pyrenophora teres (0.25 ppm) it was 49%; with Puccinia recondita (0.25 ppm), 0%; with Puccinia recondita (1 ppm) it was 0%. In addition, the “Observed efficacy (%)” value with Puccinia recondita (4 ppm) and in the assay with Puccinia recondita (16 ppm) was 0% in each case.
For the compound `Cc1nccc(CNS(=O)(=O)c2ccc(Oc3ncccc3C(F)(F)F)cc2)c1C` [Example 28], the “Observed efficacy (%)” value was 10% in the assay on Phytophthora infestans (0.016 ppm); 27% in the assay on Pyricularia oryzae [2] (0.063 ppm); 52% in the assay with Pyricularia oryzae [2] (0.25 ppm); 29% in the assay with Septoria tritici (4 ppm); 1% with Fusarium culmorum (16 ppm); 20% in the assay with Colletotrichum truncatum (4 ppm). The “Observed efficacy (%)” value in the assay on Pyrenophora teres (0.25 ppm) is recorded as 4%; in the assay on Gaeumannomyces graminis (0.063 ppm) it was 29%; with Thielaviopsis basicola (16 ppm), 23%; with Puccinia recondita (1 ppm), 0%.
`COc1cc(CNS(=O)(=O)c2ccc(Oc3ccccc3)cc2)ccn1` [comparative example 1, reference compound]: the “growth in [%] at 31 ppm” value in the assay on Pyricularia oryzae [1] is 97%.
With `COc1cc(CNS(=O)(=O)c2ccc(Oc3ncccc3C(F)(F)F)cc2)ccn1` [Example 13], the “Observed efficacy (%)” value in the assay with Phytophthora infestans (0.25 ppm) is given as 16%; with Septoria tritici (4 ppm), 39%; in the assay with Fusarium culmorum (16 ppm), 2%; with Colletotrichum truncatum (4 ppm), 26%; in the assay with Pyrenophora teres (0.063 ppm), 19%; in the assay on Gaeumannomyces graminis (0.016 ppm), 6%. Moreover, the “Observed efficacy (%)” value with Gaeumannomyces graminis (0.063 ppm) stood at 31%.
In the case of `COc1cc(CNS(=O)(=O)c2ccc(Oc3ccc(Cl)cn3)cc2)ccn1` [Example 74], the “Observed efficacy (%)” value in the assay on Alternaria solani (0.063 ppm) was 0%; in the assay on Septoria tritici (4 ppm), 58%; in the assay with Fusarium culmorum (16 ppm) it was 1%; with Colletotrichum truncatum (16 ppm), 35%; in the assay with Pyrenophora teres (0.25 ppm) it was 33%; in the assay with Thielaviopsis basicola (1 ppm), 32%. Also, in the assay with Puccinia recondita (16 ppm), the “Observed efficacy (%)” value amounted to 44%.
As for `Cc1nccc(CNS(=O)(=O)c2ccc(Oc3ccc(Br)cn3)cc2)c1C` [Example 71], the “Observed efficacy (%)” value came to 4% in the assay on Alternaria solani (0.063 ppm); 43% with Septoria tritici (4 ppm); 1% with Fusarium culmorum (16 ppm); 29% in the assay on Colletotrichum truncatum (4 ppm); 20% in the assay with Pyrenophora teres (0.25 ppm); 52% in the assay on Gaeumannomyces graminis (0.063 ppm). The “Observed efficacy (%)” value in the assay on Thielaviopsis basicola (1 ppm) came out at 9%; in the assay on Thielaviopsis basicola (16 ppm), 56%; with Puccinia recondita (16 ppm), 0%; in the assay with Verticillium dahliae (4 ppm), 55%.
Consider `COc1cc(CNS(=O)(=O)c2ccc(Oc3ncc(C(F)(F)F)cc3C)cc2)ccn1` [Example 160], for which the “Observed efficacy (%)” value is recorded as 17% with Phytophthora infestans (1 ppm); 60% with Pyricularia oryzae [2] (0.25 ppm); 55% with Septoria tritici (4 ppm); 3% in the assay on Fusarium culmorum (16 ppm); 37% in the assay with Colletotrichum truncatum (4 ppm); 11% in the assay with Pyrenophora teres (0.25 ppm). Further, the “Observed efficacy (%)” value was found to be 14% with Thielaviopsis basicola (1 ppm), 0% with Puccinia recondita (1 ppm) and 0% in the assay on Puccinia recondita (4 ppm).
For the compound `COc1cnccc1CNS(=O)(=O)c1ccc(Oc2nccc(C(F)(F)F)n2)cc1` [Example 64], the “Observed efficacy (%)” value with Alternaria solani (0.063 ppm) was found to be 0%; in the assay on Pyricularia oryzae [2] (1 ppm), 12%; in the assay on Fusarium culmorum (16 ppm), 0%; in the assay on Pyrenophora teres (0.25 ppm) it was 5%; with Thielaviopsis basicola (16 ppm), 20%; in the assay on Puccinia recondita (4 ppm), 0%. The “Observed efficacy (%)” value with Puccinia recondita (16 ppm) turned out to be 0%.
Regarding `O=C1C2CC=CCC2C(=O)N1SC(Cl)(Cl)Cl` (centres unmarked) [Captan, reference compound], the “Observed efficacy (%)” value with Phytophthora infestans (0.004 ppm) worked out at 0%; with Phytophthora infestans (0.063 ppm), 7%; in the assay with Phytophthora infestans (0.25 ppm), 3%; with Pyricularia oryzae [2] (0.063 ppm) it was 0%; with Septoria tritici (1 ppm) it was 31%; in the assay with Fusarium culmorum (4 ppm) it was 39%. The “Observed efficacy (%)” value in the assay on Pyrenophora teres (0.016 ppm) is listed as 5%; in the assay with Pyrenophora teres (0.063 ppm) it was 16%; in the assay on Gaeumannomyces graminis (0.016 ppm) it was 12%; in the assay on Gaeumannomyces graminis (0.063 ppm) it was 42%; in the assay on Thielaviopsis basicola (0.25 ppm) it was 40%; with Verticillium dahliae (0.25 ppm), 26%.
In the case of `COc1cc(CNS(=O)(=O)c2ccc(Oc3ccc(C(F)(F)F)cn3)cc2)ccn1` [Example 12], the “Observed efficacy (%)” value with Alternaria solani (0.063 ppm) was 6%; in the assay with Pyricularia oryzae [2] (0.063 ppm) it was 45%; with Septoria tritici (4 ppm), 47%; in the assay with Fusarium culmorum (16 ppm) it was 3%; in the assay with Colletotrichum truncatum (16 ppm), 50%; in the assay with Pyrenophora teres (0.063 ppm), 25%. In addition, the “Observed efficacy (%)” value in the assay with Gaeumannomyces graminis (0.016 ppm) came out at 30%; in the assay on Puccinia recondita (0.25 ppm), 0%; in the assay with Puccinia recondita (1 ppm) it was 22%.
For `Fc1ccc([C@]2(Cn3cncn3)O[C@H]2c2ccccc2Cl)cc1` [Epoxiconazol, reference compound], the “Observed efficacy (%)” value in the assay on Phytophthora infestans (0.001 ppm) turned out to be 0%; with Pyricularia oryzae [2] (0.063 ppm) it was 0%; with Gaeumannomyces graminis (0.004 ppm), 2%; in the assay on Puccinia recondita (0.063 ppm), 0%; with Puccinia recondita (0.25 ppm) it was 0%; with Puccinia recondita (1 ppm), 33%.
Consider `N#Cc1c(Cl)c(Cl)c(Cl)c(C#N)c1Cl` [Chlorothalonil, reference compound], for which the “Observed efficacy (%)” value in the assay on Phytophthora infestans (0.004 ppm) is 4%; with Phytophthora infestans (0.25 ppm), 10%; with Pyricularia oryzae [2] (0.063 ppm), 0%; in the assay with Fusarium culmorum (4 ppm), 5%; with Gaeumannomyces graminis (0.004 ppm), 0%; in the assay on Gaeumannomyces graminis (0.016 ppm) it was 9%. The “Observed efficacy (%)” value with Thielaviopsis basicola (1 ppm) stood at 56%; with Verticillium dahliae (1 ppm), 40%.
Consider `COc1cc(CNS(=O)(=O)c2ccc(Oc3cccc(C)n3)cc2)ccn1` [Example 45], for which the “Observed efficacy (%)” value is 1% with Alternaria solani (0.063 ppm); 30% with Pyricularia oryzae [2] (0.063 ppm); 50% in the assay on Septoria tritici (4 ppm); 2% with Fusarium culmorum (16 ppm); 25% with Colletotrichum truncatum (4 ppm); 25% in the assay on Pyrenophora teres (1 ppm). Moreover, the “Observed efficacy (%)” value in the assay with Puccinia recondita (4 ppm) and with Puccinia recondita (16 ppm) was 0% throughout.
Turning to `O=S(=O)(NCc1ccncc1)c1ccc(Oc2ccc(C(F)(F)F)cn2)cc1` [Example 9], the “Observed efficacy (%)” value in the assay with Septoria tritici (4 ppm) worked out at 2%; with Fusarium culmorum (16 ppm) it was 0%; in the assay with Gaeumannomyces graminis (0.25 ppm), 5%; in the assay on Thielaviopsis basicola (1 ppm) it was 11%; in the assay on Puccinia recondita (16 ppm) it was 0%.
